Laboratory results from patent US20070122830A1, “Prohibitin-directed diagnostics and therapeutics for cancer and chemotherapeutic drug resistance” (Aurelium BioPharma Inc., priority 2005, published 2007).

System: hematological tumor cells
Experiment: Hematological tumor model in MHC-matched mice, prohibitin siRNA plus chemotherapy
Format: in vivo
Details: Example 8
Method: In order to determine whether targeting prohibitin is useful in treating a preexisting cancerous condition, MHC-matched mice, 5 to 7 weeks old, receive a subcutaneous (s.c.) injection of the cells 5×10^5 hematological tumor cells, and tumors are allowed to form. Tumor growth starting on the first day of treatment is measured by palpitation, and the volume of the xenograft is monitored every 4 days. Tumors are allowed to grow to a sufficient size (5.5 mm) for appropriate analysis of the effects of prohibitin treatment on tumor sensitivity to chemotherapeutic drugs. Mice are then treated with a prohibitin siRNA (3 μg daily for 16 days) designed to decrease the level of expression of prohibitin. […]
The animal's weight is measured every 4 days. Tumor growth starting on the first day of treatment is measured by palpitation and the volume of the xenograft is monitored every 4 days. […] Tumor tissue is excised from the mice and its weight is measured. […] Tumor cell count is determined by trypsinizing tumors in DMEM medium supplemented with 10% fetal bovine serum until cells are in free suspension. […]
Liposome formulations are produced as described previously (Shi et al. (2000) Proc. Natl. Acad. Sci. USA. 97(13): 7567-7572). […] The mean vesicle diameters are determined by quasielastic light scattering using a Microtrac Ultrafine Particle Analyzer (Leeds-Northrup, St. Petersburg, Fla.). […]

prohibitin siRNA: siRNA duplex to human prohibitin mRNA nt 425-443; sense 5′-GGAAGUGGUCUGUCUGUUAtt-3′, antisense 5′-UAACAGACAGACCACUUCCtt-3′ (sense GGAAGUGGUCUGUCUGUUATT; antisense UAACAGACAGACCACUUCCTT; chemistry not given here)
sensitivity of hematological tumors to chemotherapeutic drug treatment (siRNA 3 μg daily for 16 days with taxol or doxorubicin): increases the sensitivity | prognosis (tumor size, tumor cells) vs targeting agent only or drug only (siRNA plus taxol or doxorubicin): better prognosis (i.e., smaller tumor or fewer tumor cells)
